The values below come from US11485728B2, “Small molecules for the treatment of autoimmune diseases and cancer” (Athos Therapeutics, Inc., priority 2020, dated 2022).

Series [1] concerns HT-29 colorectal cancer cells. Description: HT-29 cell viability (Real-Time-Glo). As to conditions: Homo sapiens, HT-29; 72 hr; read-out: IC50, Cell line: HT-29. Format: cell-based. Here is the method:
Equal volume of 2× RealTime-Glo™ reagent (2 μl of MT Cell Viability Substrate 1,000×, and 2 μl of NanoLuc® Enzyme 1,000×, per 1 ml of media, Promega) was added to each well and cells were incubated at 37° C. Luminescence was evaluated at 72 h.
(§1) To determine the plating density for cell viability assays, for each cell line, cells were counted and diluted to final densities of 2.5, 5, 10 and 20 thousand per 100 μl of their respective growth media per well in 96 well plates. A Promega Real-Time-Glo cell viability kit was used to determine the optimal concentration for cell plating so that each cell line would be within the linear part of its growth curve after 72 hrs in culture. […] Test compounds were then added at different concentrations for the creation of six-point curve and cell density was determined using the Promega Real-Time-Glo cell viability kit after 24, 48, and 72 hrs in culture.
Specifically, the Promega Real-Time-Glo cell viability kit was used to determine the optimal concentration for cell plating so that each cell line would be within the linear part of its growth curve after 72 hrs in culture. […] Test compounds are then added at different concentrations for the creation of six-point curve and cell density is determined using the Promega Real-Time-Glo cell viability kit after 24, 48, and 72 hrs in culture. […]

The test system of the next series is HCT-116. Nature of the series: HCT-116 cell viability (Real-Time-Glo). Format: cell-based. The following applies: Homo sapiens, 72 hr, read-out: IC50, Cell line: HCT-116. How it is done: as §1
Series [2] can be described thus: Formulation visual stability (DMA/PG/PEG 300/water). The series is classed as physicochemical. The following applies: 25° C., 10-11 mg/mL in DMA/PG/PEG 300/Water. Here is the method: All formulations were conducted with FDA approved excipients and with high purity material such as USP grade quality. Formulation stability of test articles are performed using HPLC purity method described within analytical section. This formula may be used for oral administration of the compounds described herein; […]. Since these compounds have high solubility in lower pH as described in the solubility study section, the intervenous delivery is performed with 100% phosphate buffer solution of pH 6.5 allowing up to 7 mg/mL concentration. The formulated test articles can be store at 4° C. Prior to dosing, it should be warmed and vortexed for about 1 min to make a homogenous solution. If needed, filter through 0.2 μM syringe filter to maintain clean and sterile.

A short description of series [3]: In-vitro half-life in human liver microsomes. The series is classed as in vitro ADME. The following applies: Human liver microsomes 0.5 mg/mL; 1 μg/mL drug; NRS; read-out: Metabolic Half-life. How it is done: (§2) In each of the species (human, rat, mouse) of liver matrix to be tested, a working concentration of 2 μg/mL was prepared of each test article from the 0.5 mg/mL DMSO stock solution by adding 3 μL of 0.5 mg/mL test article stock solution to 747 μL of the 1 mg/mL liver matrix. Incubation was performed at 37±2° C. with gentle, continuous mixing in shaking water bath in 2.0 mL-well capacity 96-Deepwell plates (96-DWP). Samples were retrieved in duplicate at the following time points: 0, 5, 10, 15, 30 and 60 minutes. The final mixture contained 1 μg/mL of drug and 0.5 mg/mL of liver matrix. First, 50 μL of test articles in liver matrix was added to the 96-DWP and pre-warmed the mixture in the 96-DWP for 2 minutes in the 37° C. water bath. The enzymatic reaction was started by the addition of 50 μL of the corresponding 2× NADPH regenerating system (NRS) cofactor solution to all sample wells and stopped by the addition of 300 μL of stop solution (acetonitrile containing 10 ng/mL Tolbutamide as an internal standard (I.Std.). The samples were agitated for 10 minutes and then centrifuged for 20 minutes at 4500 rpm. 25 μL of supernatant was diluted with 475 μL acetonitrile containing I. Std. into a new 96-DWPs for LC-MS/MS analysis.
(§3) Half-life calculations were generated and calculated by Graphpad Prism® software. The half-life of test compound was calculated based on the first-order reaction kinetics. The data was transformed to linear regression (y=log(y) where “y” axis represents the % compound remaining at any given time with respect to time 0 minutes; “x” axis represents time in minutes) in order to calculate the half-life.
(§4) A comparison of metabolic stability in time-course incubation experiments in varying species of liver can provide information of pharmacokinetic properties of drugs attributable to species-related differences in hepatic metabolism. The results of these experiments often assist in further applications such as assessing in vitro metabolite profiling and choosing relevant species for toxicology studies based on similarities relative to the metabolic stability to the human profile. For these experiments, the test compound was tested in parallel with a positive control, Dasatinab, in an enzymatic reaction solution of each species (human and rat) of liver microsomes containing a NADPH regenerating system (NRS). The final mixture contained 1 μg/mL of drug and 0.5 mg/mL of liver matrix. Incubations were performed at 37±2° C. with gentle, continuous mixing in shaking water bath in 96-Deep well plates. The stability of the test compound is monitored using fast, specific and sensitive LC/MS/MS analysis.
In general terms: Microsomes from liver hold many membrane-bound enzymes, among them those of drug oxidation.

Series [4] can be described thus: In-vitro half-life in rat liver microsomes. Format: in vitro ADME. As to conditions: Rat liver microsomes 0.5 mg/mL; 1 μg/mL drug; NRS; read-out: Metabolic Half-life. Here is the method: as §2, §3, §4
A short description of series [5]: In-vitro half-life in mouse liver microsomes. Format: in vitro ADME. As to conditions: Mouse liver microsomes 0.5 mg/mL; 1 μg/mL drug; NRS; read-out: Metabolic Half-life. Here is the method: as §2, §3, §4
Another series can be described thus: PAMPA permeability. The following applies: PAMPA, 5 hours at RT. In general terms: The PAMPA barrier holds no transporters, so it reflects passive diffusion.
For series [6] the following is noted: cited from earlier work.
A further series deals with mouse. As to conditions: oral; cited from earlier work.

Molecules are shown by their SMILES.

The term IC50 denotes the concentration that gives 50% inhibition. The half-life is how long it takes for the measured level to halve. For orientation: Papp means a coefficient for how fast a substance crosses the barrier. Turning to `COc1cc2c(NC3CCN(C4CCCCC4)CC3)nc(N3CCCN(C(C)C)CC3)nc2cc1OCCCN1CCCCC1` [Compound 402, reference compound], the IC50 in [1] lay within 10 to 20 µM; with HCT-116, 5 to 10 µM. Besides, the Appearance entry in series [2] (30 min), in [2] (1 h), in [2] (5 h), in series [2] (24 h) and in series [2] (7 d) was “clear” throughout. The half-life at 1 μg/mL in series [3], in series [4] and in series [5] was more than 1 h in each case. Besides, the Papp at 5 h, 20 μM is less than 0.055 ×10⁻⁶ cm/s in “PAMPA permeability” (PAMPA permeability Classification, 20 μM donor) and 0.00971 ×10⁻⁶ cm/s in the series “PAMPA permeability” (Permeability, Pe, 20 μM donor in PBS/MeOH 90:10).

Consider `O=C(O)Cc1ccccc1Nc1c(Cl)cccc1Cl` [Diclofenac], for which the “permeability of positive control (published)” value in [6] is listed as “high permeability”.

Broadly, the LD50 is the dose expected to kill half of the subjects tested. In the case of `CC(O)CO` (centres unmarked) [PG, propylene glycol], in the series on mouse, the LD50 was 22000 mg/kg.
